{"source": "patent US20100069450A1", "about": "“SALT OF 3-BENZYL-2-METHYL-2,3,3A,4,5,6,7, 7A- OCTAHYDROBENZO[D]ISOXAZOL-4-ONE” (ABIOGEN PHARMA S.P.A, priority 2006, published 2010)", "key": {"female CD-1 mice": {"test_system": "female CD-1 mice", "assay": "Acute oral toxicity", "type": "in vivo", "conditions": "female CD-1 mice, oral gavage 2000 mg/kg bw", "protocol": "Acute oral toxicity of salts hydrochloride and fumarate of BTG-1640 was evaluated.\nThe two salts were dispersed in an aqueous suspension, thus obtaining two formulations, each one orally administered through oesophageous gavage at dose of 2000 mg/kg bw (expressed as free base of BTG 1640) to one of two groups comprising three female CD-1 mice per group.\nThe observation lasted 14 days."}, "[1]": {"assay": "Stability test of BTG 1640 salts: evaluation of total impurities", "type": "physicochemical", "protocol": "Contemporaneously, the impurity analysis in the conditions a)-d) of T/% RH were carried out.\nAs a confirmation of such evidence, a test for the evaluation of the impurity percentage of the sample subjected to the same conditions a)-d) of T/% RH was parallely carried out. The experimental values in Table 4 were obtained."}, "[2]": {"assay": "Absorption kinetic: plasma concentration of BTG 1640 after oral gavage", "type": "in vivo, rats Sprague Dawley", "conditions": "rats, oral gavage 10 mg/kg (as free base)", "protocol": "Absorption extent and rate of molecule BTG 1640 in its forms of fumarate and hydrochloride salts were evaluated.\nWith this intent, the two salts were dispersed in an aqueous suspension of arabic gum at 5% thus obtaining two formulations, each one orally administered through oesophageous gavage at dose of 10 mg/kg (expressed as free base of BTG 1640) to five rats Sprague Dawley.\nPlasma concentration of molecule BTG 1640 was determined at different time points."}, "[3]": {"assay": "Stability test of BTG 1640 salts: purity under preservation conditions", "type": "physicochemical", "protocol": "Samples of 100 mg each of BTG 1640 hydrochloride were subjected to the following preservation conditions:\nThe purities were then analyzed periodically, initially every three months, in order to underline possible variations.\nSamples of 100 mg each of BTG 1640 fumarate prepared according to example 1C were subjected to the following preservation conditions:\nQuarterly and in an overall period of nine months its purity was then analyzed in order to underline possible variations. The results in the following Table 3 were obtained:\nAs comparison other salts of BTG 1640 were prepared, and exactly: • BTG 1640 methanesulphonate • BTG 1640 maleate • BTG 1640 succinate following the procedure indicated in example 1 and substituting methanesolphonic, maleic and succinic acids for fumaric acid.\nThe stabilities were then evaluated by subjecting samples of 100 mg of each salt to the following analogous preservation conditions:\nQuarterly and in an overall period of nine months their purity was then analyzed in order to underline possible variations.\nThe obtained results, together with those obtained in Example 2 for hydrochloride, in Example 3 for fumarate in order to make easier the comparison, were in Table 5 and represented in FIGS. 5-8."}, "[4]": {"conditions": "T = 25° C., humidity 60% RH, time 0"}, "[5]": {"conditions": "T = 25° C., humidity 60% RH, time 3 (months)"}, "[6]": {"conditions": "T = 25° C., humidity 60% RH, time 6 (months)"}, "[7]": {"conditions": "T = 25° C., humidity 60% RH, time 9 (months)"}, "[8]": {"conditions": "T = 25° C., humidity 60% RH, time 12 (months)"}, "[9]": {"conditions": "T = 25° C., humidity 60% RH, time 18 (months)"}, "[10]": {"conditions": "T = 25° C., humidity 60% RH, time 24 (months)"}, "[11]": {"conditions": "T = 25° C., humidity 60% RH, time 36 (months)"}, "[12]": {"conditions": "T = 30° C., humidity 65% RH, time 0"}, "[13]": {"conditions": "T = 30° C., humidity 65% RH, time 3 (months)"}, "[14]": {"conditions": "T = 30° C., humidity 65% RH, time 6 (months)"}, "[15]": {"conditions": "T = 30° C., humidity 65% RH, time 9 (months)"}, "[16]": {"conditions": "T = 30° C., humidity 65% RH, time 12 (months)"}, "[17]": {"conditions": "T = 40° C., humidity 75% RH, time 0"}, "[18]": {"conditions": "T = 40° C., humidity 75% RH, time 3 (months)"}, "[19]": {"conditions": "T = 40° C., humidity 75% RH, time 6 (months)"}}}
{"smiles": "CN1OC2CCCC(=O)C2C1Cc1ccccc1.Cl", "note": "(stereo not shown) [BTG 1640 hydrochloride]", "values": [{"measurement": "Clinical signs", "setting": "female CD-1 mice", "value": "Lethargy, ataxia, aggressiveness and vocalization"}, {"measurement": "Histopathological examination of kidneys", "setting": "female CD-1 mice", "value": "small foci of acute tubular necrosis in the cortex, balloon degeneration of the epithelium and dilatation of convoluted tubules"}, {"measurement": "Lethality", "setting": "female CD-1 mice; 14 days observation", "value": "lethal in two animals out of three"}, {"measurement": "% impurities", "setting": "[1]; T = 5° C., time 0", "value": 0.36, "unit": "%"}, {"measurement": "% impurities", "setting": "[1]; T = 5° C., time 3 (months)", "value": 0.58, "unit": "%"}, {"measurement": "% impurities", "setting": "[1]; T = 5° C., time 6 (months)", "value": 0.45, "unit": "%"}, {"measurement": "% impurities", "setting": "[1]; T = 5° C., time 9 (months)", "value": 0.31, "unit": "%"}, {"measurement": "% impurities", "setting": "[1]; T = 5° C., time 12 (months)", "value": 0.31, "unit": "%"}, {"measurement": "% impurities", "setting": "[1]; T = 5° C., time 18 (months)", "value": 0.1, "unit": "%"}, {"measurement": "% impurities", "setting": "[1]; T = 5° C., time 24 (months)", "value": 0.21, "unit": "%"}, {"measurement": "% impurities", "setting": "[1]; T = 5° C., time 36 (months)", "value": 0.18, "unit": "%"}, {"measurement": "% impurities", "setting": "[1]; [4]", "value": 0.36, "unit": "%"}, {"measurement": "% impurities", "setting": "[1]; [5]", "value": 0.43, "unit": "%"}, {"measurement": "% impurities", "setting": "[1]; [6]", "value": 0.87, "unit": "%"}, {"measurement": "% impurities", "setting": "[1]; [7]", "value": 0.24, "unit": "%"}, {"measurement": "% impurities", "setting": "[1]; [8]", "value": 0.34, "unit": "%"}, {"measurement": "% impurities", "setting": "[1]; [9]", "value": 0.13, "unit": "%"}, {"measurement": "% impurities", "setting": "[1]; [10]", "value": 0.28, "unit": "%"}, {"measurement": "% impurities", "setting": "[1]; [11]", "value": 0.30, "unit": "%"}, {"measurement": "% impurities", "setting": "[1]; [12]", "value": 0.36, "unit": "%"}, {"measurement": "% impurities", "setting": "[1]; [13]", "value": 0.44, "unit": "%"}, {"measurement": "% impurities", "setting": "[1]; [14]", "value": 0.52, "unit": "%"}, {"measurement": "% impurities", "setting": "[1]; [15]", "value": 0.12, "unit": "%"}, {"measurement": "% impurities", "setting": "[1]; [16]", "value": 0.76, "unit": "%"}, {"measurement": "% impurities", "setting": "[1]; [17]", "value": 0.36, "unit": "%"}, {"measurement": "% impurities", "setting": "[1]; [18]", "value": 6.99, "unit": "%"}, {"measurement": "% impurities", "setting": "[1]; [19]", "value": 17.31, "unit": "%"}, {"measurement": "Impurities (in words)", "setting": "[1]; condition d): 40° C./75% RH", "value": "unacceptable percentage of impurities"}, {"measurement": "BTG 1640 free base concentration in plasma", "setting": "[2]; 2 minutes", "value": 0.7402, "unit": "µg/mL"}, {"measurement": "BTG 1640 free base concentration in plasma", "setting": "[2]; 5 minutes", "value": 1.4242, "unit": "µg/mL"}, {"measurement": "BTG 1640 free base concentration in plasma", "setting": "[2]; 30 minutes", "value": 0.2354, "unit": "µg/mL"}, {"measurement": "BTG 1640 free base concentration in plasma", "setting": "[2]; 90 minutes", "value": 0.1184, "unit": "µg/mL"}, {"measurement": "BTG 1640 free base concentration in plasma", "setting": "[2]; 300 minutes", "value": 0, "unit": "µg/mL"}, {"measurement": "Purity %", "setting": "[3]; T = 5° C., time 0", "value": 99.3, "unit": "%"}, {"measurement": "Purity %", "setting": "[3]; T = 5° C., time 3 (months)", "value": 100.1, "unit": "%"}, {"measurement": "Purity %", "setting": "[3]; T = 5° C., time 6 (months)", "value": 100.3, "unit": "%"}, {"measurement": "Purity %", "setting": "[3]; T = 5° C., time 9 (months)", "value": 99.6, "unit": "%"}, {"measurement": "Purity %", "setting": "[3]; T = 5° C., time 12 (months)", "value": 99.6, "unit": "%"}, {"measurement": "Purity %", "setting": "[3]; T = 5° C., time 18 (months)", "value": 100.8, "unit": "%"}, {"measurement": "Purity %", "setting": "[3]; T = 5° C., time 24 (months)", "value": 98.8, "unit": "%"}, {"measurement": "Purity %", "setting": "[3]; T = 5° C., time 36 (months)", "value": 99.8, "unit": "%"}, {"measurement": "Purity %", "setting": "[3]; [4]", "value": 99.7, "unit": "%"}, {"measurement": "Purity %", "setting": "[3]; [5]", "value": 100.9, "unit": "%"}, {"measurement": "Purity %", "setting": "[3]; [6]", "value": 101.5, "unit": "%"}, {"measurement": "Purity %", "setting": "[3]; [7]", "value": 99.3, "unit": "%"}, {"measurement": "Purity %", "setting": "[3]; [8]", "value": 101.1, "unit": "%"}, {"measurement": "Purity %", "setting": "[3]; [9]", "value": 100.5, "unit": "%"}, {"measurement": "Purity %", "setting": "[3]; [10]", "value": 99.3, "unit": "%"}, {"measurement": "Purity %", "setting": "[3]; [11]", "value": 99.5, "unit": "%"}, {"measurement": "Purity %", "setting": "[3]; [12]", "value": 99.7, "unit": "%"}, {"measurement": "Purity %", "setting": "[3]; [13]", "value": 100.0, "unit": "%"}, {"measurement": "Purity %", "setting": "[3]; [14]", "value": 100.9, "unit": "%"}, {"measurement": "Purity %", "setting": "[3]; [15]", "value": 100.6, "unit": "%"}, {"measurement": "Purity %", "setting": "[3]; [16]", "value": 99.9, "unit": "%"}, {"measurement": "Purity %", "setting": "[3]; [17]", "value": 99.7, "unit": "%"}, {"measurement": "Purity %", "setting": "[3]; [18]", "value": 93.4, "unit": "%"}, {"measurement": "Purity %", "setting": "[3]; [19]", "value": 81.2, "unit": "%"}, {"measurement": "Stability (in words)", "setting": "[3]; condition d): 40° C. and 75% RH", "value": "strong instability"}, {"measurement": "Stability (in words)", "setting": "[3]; conditions a)-c): 5° C., 25° C./60% RH, 30° C./65% RH", "value": "good stability"}, {"measurement": "validity time period", "setting": "[3]; on the basis of the stability results, preserved at 2-8° C.", "value": 12, "unit": "months"}, {"measurement": "Stability (in words)", "setting": "[3]; temperatures higher than 30° C.", "value": "unstable"}]}
